Source: patent US20020137929A1, “1 - (3-heterocyclylphenyl) isothiourea, -isourea, -guanidine and -amidine herbicidal agents” (Intellectual Property Department, BASF Aktiengesellschaft, priority 1998, published 2002)

What was measured:
[1] = test system: IPOHE (Morningglory, Ivyleaf); experiment: Preemergence herbicidal evaluation; assay type: in vivo, Ipomoea hederacea; conditions: preemergence, rated 4-5 weeks after treatment, 0-9 scale
How it was run: (§1)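 Seeds were mixed with potting soil and planted on about one inch of soil, then sprayed with test compound in aqueous acetone at about 0.0156 to 0.500 kg per hectare. Plants grew under standard greenhouse care and were visually rated 0-9 against untreated controls 4-5 weeks post-treatment.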

[2] = test system: GLXMAW (Soybean, Williams); experiment: Preemergence herbicidal evaluation; assay type: in vivo, Glycine max, (L.) Merr. cv Williams; conditions: preemergence, rated 4-5 weeks after treatment, 0-9 scale
How it was run: as §1

ABUTH (Velvetleaf) [3] = experiment: Preemergence herbicidal evaluation; assay type: in vivo, Abutilon theophrasti; conditions: preemergence, rated 4-5 weeks after treatment, 0-9 scale
How it was run: as §1

[4] = test system: TRZAWR (Wheat, Winter, cv Riband); experiment: Preemergence herbicidal evaluation; assay type: in vivo, Triticum aestivum; conditions: preemergence, rated 4-5 weeks after treatment, 0-9 scale
How it was run: as §1

[5] = test system: CHEAL (Lambsquarters, Common); experiment: Postemergence herbicidal evaluation; assay type: in vivo, Chenopodium album; conditions: postemergence
How it was run: (§2)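 Visual 0-9 injury score (stand, vigor, malformation, size, chlorosis, appearance vs untreated) taken four to five weeks post-spray, averaged across repeat tests. Test plants about two weeks old; foliar spray of acetone/water (1:1) with 0.5% surfactant delivering ~0.0156-0.500 kg active/ha.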

SETVI (Foxtail, Green) = experiment: Postemergence herbicidal evaluation; assay type: in vivo, Setaria viridis; conditions: postemergence
How it was run: as §2

CYPIR (Rice Flatsedge) = experiment: Postemergence weed control under flooded paddy conditions; assay type: in vivo, Cyperus iria; conditions: postemergence weeds, rated 3 to 4 weeks after treatment
How it was run: (§3)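 Containers holding 3–5 cm weeds and rice at 1.5–2.5 leaves are flooded to 1.5–3 cm above soil. Compound in 50/50 v/v aqueous/acetone is then added directly to the water, about 0.0313–0.500 kg/ha. Plants are kept in the greenhouse and rated 0–9 visually at 3–4 weeks.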

ZEAMX (Corn, Field) [6] = experiment: Postemergence herbicidal evaluation; assay type: in vivo, Zea mays; conditions: postemergence
How it was run: as §2

ABUTH (Velvetleaf) [7] = experiment: Postemergence herbicidal evaluation; assay type: in vivo, Abutilon theophrasti; conditions: postemergence
How it was run: as §2

ORYSAT (Rice, Tebonnet) = experiment: Postemergence herbicidal evaluation; assay type: in vivo, Oryza sativa, (L.) Tebonnet; conditions: postemergence
How it was run: as §2

CASOB (Sicklepod) = experiment: Preemergence herbicidal evaluation; assay type: in vivo, Cassia obtusifolia; conditions: preemergence, rated 4-5 weeks after treatment, 0-9 scale
How it was run: as §1

ECHCG (Barnyardgrass) [8] = experiment: Postemergence herbicidal evaluation; assay type: in vivo, Echinochloa crus-galli; conditions: postemergence
How it was run: as §2

[9] = test system: IPOHE (Morningglory, Ivyleaf); experiment: Postemergence herbicidal evaluation; assay type: in vivo, Ipomoea hederacea; conditions: postemergence
How it was run: as §2

[10] = test system: CHEAL (Lambsquarters, Common); experiment: Preemergence herbicidal evaluation; assay type: in vivo, Chenopodium album; conditions: preemergence, rated 4-5 weeks after treatment, 0-9 scale
How it was run: as §1

CYPSE (Flatsedge) = experiment: Postemergence weed control under flooded paddy conditions; assay type: in vivo, Cyperus serotinus; conditions: postemergence weeds, rated 3 to 4 weeks after treatment
How it was run: as §3

ZEAMX (Corn, Field) [11] = experiment: Preemergence herbicidal evaluation; assay type: in vivo, Zea mays; conditions: preemergence, rated 4-5 weeks after treatment, 0-9 scale
How it was run: as §1

ECHCG (Barnyardgrass) [12] = experiment: Preemergence herbicidal evaluation; assay type: in vivo, Echinochloa crus-galli; conditions: preemergence, rated 4-5 weeks after treatment, 0-9 scale
How it was run: as §1

In the case of `C=CCN1C(=O)C(CC(=O)OC(C)C(=O)OCC)SC1=Nc1cc(-n2c(=O)ccn(C)c2=O)c(F)cc1Cl` [Compound 94, 3-Allyl-2-{{2-chloro-5-[3,6-dihydro-3-methyl-2,6-dioxo-1(2H)-pyrimidinyl]-4-fluorophenyl}imino}-4-oxo-5-thiazolidineacetic acid, ester with ethyl lactate, (R,S)-], the IPOHE rating ([1]; 0.0156 kg/ha) was 0.0, the IPOHE rating ([1]; 0.0313 kg/ha) was 0.0 and the IPOHE rating ([1]; 0.0625 kg/ha) was 0.0. It also gave an IPOHE rating ([1]; 0.1250 kg/ha) of 9.0, an IPOHE rating ([1]; 0.2500 kg/ha) of 9.0 and a GLXMAW rating ([2]; 0.0156 kg/ha) of 0.0. The GLXMAW rating ([2]; 0.0313 kg/ha) was 0.0, the GLXMAW rating ([2]; 0.0625 kg/ha) was 0.0 and the GLXMAW rating ([2]; 0.1250 kg/ha) was 0.0. It also gave a GLXMAW rating ([2]; 0.2500 kg/ha) of 4.0, an ABUTH rating (ABUTH (Velvetleaf) [3]; 0.0156 kg/ha) of 0.0 and an ABUTH rating (ABUTH (Velvetleaf) [3]; 0.0313 kg/ha) of 9.0. It also gave an ABUTH rating (ABUTH (Velvetleaf) [3]; 0.0625 kg/ha) of 9.0, an ABUTH rating (ABUTH (Velvetleaf) [3]; 0.1250 kg/ha) of 9.0 and an ABUTH rating (ABUTH (Velvetleaf) [3]; 0.2500 kg/ha) of 9.0. The TRZAWR rating ([4]; 0.0156 kg/ha) was 0.0, the TRZAWR rating ([4]; 0.0313 kg/ha) was 0.0 and the TRZAWR rating ([4]; 0.0625 kg/ha) was 0.0. For the same compound, the TRZAWR rating ([4]; 0.1250 kg/ha) was 0.0, the TRZAWR rating ([4]; 0.2500 kg/ha) was 0.0 and the CHEAL herbicidal rating ([5]; rate 0.0158 kg/ha) was 9.0. It also gave a CHEAL herbicidal rating ([5]; rate 0.0315 kg/ha) of 9.0, a CHEAL herbicidal rating ([5]; rate 0.0630 kg/ha) of 9.0 and an SETVI herbicidal rating (SETVI (Foxtail, Green); rate 0.0158 kg/ha) of 9.0. The SETVI herbicidal rating (SETVI (Foxtail, Green); rate 0.0315 kg/ha) was 9.0, the SETVI herbicidal rating (SETVI (Foxtail, Green); rate 0.0630 kg/ha) was 9.0 and the “Herbicidal rating CYPIR” value (CYPIR (Rice Flatsedge); Rate 0.0313 kg/ha) was 0.0. The “Herbicidal rating CYPIR” value (CYPIR (Rice Flatsedge); Rate 0.0625 kg/ha) was 3.0, the “Herbicidal rating CYPIR” value (CYPIR (Rice Flatsedge); Rate 0.1250 kg/ha) was 4.0 and the “Herbicidal rating CYPIR” value (CYPIR (Rice Flatsedge); Rate 0.2500 kg/ha) was 4.0. For the same compound, the ZEAMX herbicidal rating (ZEAMX (Corn, Field) [6]; rate 0.0158 kg/ha) was 8.5, the ZEAMX herbicidal rating (ZEAMX (Corn, Field) [6]; rate 0.0315 kg/ha) was 8.5 and the ZEAMX herbicidal rating (ZEAMX (Corn, Field) [6]; rate 0.0630 kg/ha) was 9.0. The ABUTH herbicidal rating (ABUTH (Velvetleaf) [7]; rate 0.0158 kg/ha) was 9.0, the ABUTH herbicidal rating (ABUTH (Velvetleaf) [7]; rate 0.0315 kg/ha) was 9.0 and the ABUTH herbicidal rating (ABUTH (Velvetleaf) [7]; rate 0.0630 kg/ha) was 9.0. It also gave an ORYSAT herbicidal rating (ORYSAT (Rice, Tebonnet); rate 0.0158 kg/ha) of 2.0, an ORYSAT herbicidal rating (ORYSAT (Rice, Tebonnet); rate 0.0315 kg/ha) of 4.5 and an ORYSAT herbicidal rating (ORYSAT (Rice, Tebonnet); rate 0.0630 kg/ha) of 5.0. It also gave a CASOB rating (CASOB (Sicklepod); 0.0156 kg/ha) of 0.0, a CASOB rating (CASOB (Sicklepod); 0.0313 kg/ha) of 0.0 and a CASOB rating (CASOB (Sicklepod); 0.0625 kg/ha) of 0.0. For the same compound, the CASOB rating (CASOB (Sicklepod); 0.1250 kg/ha) was 0.0, the CASOB rating (CASOB (Sicklepod); 0.2500 kg/ha) was 0.0 and the ECHCG herbicidal rating (ECHCG (Barnyardgrass) [8]; rate 0.0158 kg/ha) was 1.0. It also gave an ECHCG herbicidal rating (ECHCG (Barnyardgrass) [8]; rate 0.0315 kg/ha) of 7.0, an ECHCG herbicidal rating (ECHCG (Barnyardgrass) [8]; rate 0.0630 kg/ha) of 9.0 and an IPOHE herbicidal rating ([9]; rate 0.0158 kg/ha) of 9.0. For the same compound, the IPOHE herbicidal rating ([9]; rate 0.0315 kg/ha) was 9.0, the IPOHE herbicidal rating ([9]; rate 0.0630 kg/ha) was 9.0 and the CHEAL rating ([10]; 0.0156 kg/ha) was 9.0. It also gave a CHEAL rating ([10]; 0.0313 kg/ha) of 9.0, a CHEAL rating ([10]; 0.0625 kg/ha) of 9.0 and a CHEAL rating ([10]; 0.1250 kg/ha) of 9.0. For the same compound, the CHEAL rating ([10]; 0.2500 kg/ha) was 9.0, the “Herbicidal rating CYPSE” value (CYPSE (Flatsedge); Rate 0.1250 kg/ha) was 6.0 and the “Herbicidal rating CYPSE” value (CYPSE (Flatsedge); Rate 0.2500 kg/ha) was 9.0. For the same compound, the ZEAMX rating (ZEAMX (Corn, Field) [11]; 0.0156 kg/ha) was 0.0, the ZEAMX rating (ZEAMX (Corn, Field) [11]; 0.0313 kg/ha) was 0.0 and the ZEAMX rating (ZEAMX (Corn, Field) [11]; 0.0625 kg/ha) was 0.0. It also gave a ZEAMX rating (ZEAMX (Corn, Field) [11]; 0.1250 kg/ha) of 0.0, a ZEAMX rating (ZEAMX (Corn, Field) [11]; 0.2500 kg/ha) of 6.0 and an ECHCG rating (ECHCG (Barnyardgrass) [12]; 0.0156 kg/ha) of 0.0. It also gave an ECHCG rating (ECHCG (Barnyardgrass) [12]; 0.0313 kg/ha) of 0.0, an ECHCG rating (ECHCG (Barnyardgrass) [12]; 0.0625 kg/ha) of 0.0 and an ECHCG rating (ECHCG (Barnyardgrass) [12]; 0.1250 kg/ha) of 0.0. The ECHCG rating (ECHCG (Barnyardgrass) [12]; 0.2500 kg/ha) was 0.0.
